Results: PubChem BioAssay (NCI)
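Five compound concentrations were applied to cells in 96-well plates for 48 hours; endpoints were derived by simple linear interpolation of the resulting dose-response curve. TGI: total growth inhibition.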

What was measured:
Test in all cases: growth of human tumour cells (NCI), 48 h
HCC-2998 colon = tested on: HCC-2998 colon
SK-MEL-28 melanoma = tested on: SK-MEL-28 melanoma
786-0 renal = tested on: 786-0 renal
CAKI-1 renal = tested on: CAKI-1 renal
SF-295 CNS = tested on: SF-295 CNS
KM12 colon = tested on: KM12 colon
HOP-92 NSCLC = tested on: HOP-92 NSCLC
SNB-75 CNS = tested on: SNB-75 CNS
RXF 393 renal = tested on: RXF 393 renal
M19-MEL melanoma = tested on: M19-MEL melanoma
SF-268 CNS = tested on: SF-268 CNS
ACHN renal = tested on: ACHN renal
M14 melanoma = tested on: M14 melanoma
UACC-257 melanoma = tested on: UACC-257 melanoma
SK-OV-3 ovarian = tested on: SK-OV-3 ovarian
DMS 273 small cell lung = tested on: DMS 273 small cell lung
EKVX NSCLC = tested on: EKVX NSCLC
TK-10 renal = tested on: TK-10 renal
MALME-3M melanoma = tested on: MALME-3M melanoma
OVCAR-3 ovarian = tested on: OVCAR-3 ovarian
RXF-631 renal = tested on: RXF-631 renal
UACC-62 melanoma = tested on: UACC-62 melanoma
MOLT-4 leukemia = tested on: MOLT-4 leukemia
NCI-H460 lung = tested on: NCI-H460 lung
DLD-1 colon = tested on: DLD-1 colon
K-562 leukemia = tested on: K-562 leukemia
OVCAR-4 ovarian = tested on: OVCAR-4 ovarian
SN12C renal = tested on: SN12C renal
IGROV1 ovarian = tested on: IGROV1 ovarian
HOP-62 NSCLC = tested on: HOP-62 NSCLC
SNB-19 CNS = tested on: SNB-19 CNS
NCI-H23 lung = tested on: NCI-H23 lung
LXFL 529 NSCLC = tested on: LXFL 529 NSCLC
OVCAR-8 ovarian = tested on: OVCAR-8 ovarian
SW-620 colon = tested on: SW-620 colon
NCI-H522 lung = tested on: NCI-H522 lung
RPMI-8226 leukemia = tested on: RPMI-8226 leukemia
XF 498 CNS = tested on: XF 498 CNS
HT29 colon = tested on: HT29 colon
DMS 114 small cell lung = tested on: DMS 114 small cell lung
OVCAR-5 ovarian = tested on: OVCAR-5 ovarian
HCT-15 colon = tested on: HCT-15 colon
HL-60(TB) leukemia = tested on: HL-60(TB) leukemia
A549 NSCLC = tested on: A549 NSCLC
KM20L2 colon = tested on: KM20L2 colon
CCRF-CEM leukemia = tested on: CCRF-CEM leukemia
SNB-78 CNS = tested on: SNB-78 CNS
SK-MEL-2 melanoma = tested on: SK-MEL-2 melanoma
UO-31 renal = tested on: UO-31 renal
COLO 205 colon = tested on: COLO 205 colon
SK-MEL-5 melanoma = tested on: SK-MEL-5 melanoma
LOX IMVI melanoma = tested on: LOX IMVI melanoma
A498 renal = tested on: A498 renal
NCI-H226 lung = tested on: NCI-H226 lung
HCT-116 colon = tested on: HCT-116 colon
SR leukemia = tested on: SR leukemia
SF-539 CNS = tested on: SF-539 CNS
U251 CNS = tested on: U251 CNS
HOP-18 NSCLC = tested on: HOP-18 NSCLC

Measured: TGI

COc1ccc(CCNCc2cccc(OC)c2OC)cc1OC
not listed: A498 renal | NCI-H226 lung | HCT-116 colon | SR leukemia | SF-539 CNS | U251 CNS | HOP-18 NSCLC
> 100 µM: all other assays above

CN(C)[C@@H]1C(=O)C(C(=O)NCNCCCC(=O)O)=C(O)[C@@]2(O)C(=O)C3=C(O)c4c(O)cccc4[C@@](C)(O)[C@H]3C[C@@H]12
not listed: SNB-75 CNS | MALME-3M melanoma | RXF-631 renal
> 100 µM: all other assays above
